Results: the supplement of paper PMC10883282
± gives the standard deviation of the averaged measurements.

Legend:
Assay in all cases: relative viability vs DMSO control (72 h) (fraction); higher = more viable cells
[1] = system: A204
Method in brief: (§1)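 Relative viability was measured with ATPLite and expressed as percent growth, averaged across up to triplicate wells. Sarcoma cell lines had been seeded in 384-well plates to reach 80–90% confluence, dosed after 24 h, and incubated 72 h at 37 °C, 5% CO2. All data were rescaled on a scale where 1 is full and 0 is none.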

[2] = system: G401
Method in brief: as §1

[3] = system: HS729
Method in brief: as §1

[4] = system: HT1080
Method in brief: as §1

[5] = system: KHOS-NP
Method in brief: as §1

[6] = system: RD-ES
Method in brief: as §1

[7] = system: SK-ES-1
Method in brief: as §1

[8] = system: SK-LMS-1
Method in brief: as §1

[9] = system: SW684
Method in brief: as §1

[10] = system: SW872
Method in brief: as §1

[11] = system: SW982
Method in brief: as §1

[12] = system: VA-ES-BJ
Method in brief: as §1

Which results are given for `N#CC1(c2ccc(NC(=O)c3cccnc3NCc3ccncc3)cc2)CCCC1` [Apatinib]?
relative viability ([1]; 0.00017 µM): 1.03 ± 0.054; relative viability ([1]; 0.00051 µM): 1.03 ± 0.025; relative viability ([1]; 0.00152 µM): 1.05 ± 0.039; relative viability ([1]; 0.00457 µM): 1.07 ± 0.021; relative viability ([1]; 0.01372 µM): 1.02 ± 0.016; relative viability ([1]; 0.04115 µM): 1.01 ± 0.036; relative viability ([1]; 0.1235 µM): 0.992 ± 0.019; relative viability ([1]; 0.3704 µM): 0.811 ± 0.069; relative viability ([1]; 1.111 µM): 0.482 ± 0.054; relative viability ([1]; 3.333 µM): 0.362 ± 0.009; relative viability ([1]; 10 µM): 0.342 ± 0.012; relative viability ([2]; 0.00017 µM): 1.006 ± 0.0048; relative viability ([2]; 0.00051 µM): 1 ± 0.05; relative viability ([2]; 0.00152 µM): 0.995 ± 0.034; relative viability ([2]; 0.00457 µM): 0.979 ± 0.013; relative viability ([2]; 0.01372 µM): 1.01 ± 0.038; relative viability ([2]; 0.04115 µM): 0.995 ± 0.048; relative viability ([2]; 0.1235 µM): 0.955 ± 0.026; relative viability ([2]; 0.3704 µM): 0.927 ± 0.034; relative viability ([2]; 1.111 µM): 0.901 ± 0.037; relative viability ([2]; 3.333 µM): 0.895 ± 0.033; relative viability ([2]; 10 µM): 0.7567 ± 0.0054; relative viability ([3]; 0.00017 µM): 1.06 ± 0.024; relative viability ([3]; 0.00051 µM): 1.0262 ± 0.00061; relative viability ([3]; 0.00152 µM): 1.066 ± 0.0066; relative viability ([3]; 0.00457 µM): 1.04 ± 0.019; relative viability ([3]; 0.01372 µM): 0.997 ± 0.051; relative viability ([3]; 0.04115 µM): 1.03 ± 0.028; relative viability ([3]; 0.1235 µM): 1.04 ± 0.028; relative viability ([3]; 0.3704 µM): 0.963 ± 0.043; relative viability ([3]; 1.111 µM): 0.906 ± 0.042; relative viability ([3]; 3.333 µM): 0.865 ± 0.033; relative viability ([3]; 10 µM): 0.745 ± 0.013; relative viability ([4]; 0.00017 µM): 1.02 ± 0.026; relative viability ([4]; 0.00051 µM): 1.05 ± 0.013; relative viability ([4]; 0.00152 µM): 1.05 ± 0.02; relative viability ([4]; 0.00457 µM): 1.081 ± 0.0097; relative viability ([4]; 0.01372 µM): 1.07 ± 0.022; relative viability ([4]; 0.04115 µM): 1.05 ± 0.026; relative viability ([4]; 0.1235 µM): 1.069 ± 0.0035; relative viability ([4]; 0.3704 µM): 1.04 ± 0.027; relative viability ([4]; 1.111 µM): 1.03 ± 0.03; relative viability ([4]; 3.333 µM): 1.04 ± 0.014; relative viability ([4]; 10 µM): 0.9829 ± 0.0037; relative viability ([5]; 0.00017 µM): 1.03 ± 0.021; relative viability ([5]; 0.00051 µM): 1.04 ± 0.018; relative viability ([5]; 0.00152 µM): 1.05 ± 0.015; relative viability ([5]; 0.00457 µM): 1.05 ± 0.025; relative viability ([5]; 0.01372 µM): 1.06 ± 0.017; relative viability ([5]; 0.04115 µM): 1.08 ± 0.012; relative viability ([5]; 0.1235 µM): 1.04 ± 0.042; relative viability ([5]; 0.3704 µM): 1.027 ± 0.0073; relative viability ([5]; 1.111 µM): 1 ± 0.02; relative viability ([5]; 3.333 µM): 0.918 ± 0.036; relative viability ([5]; 10 µM): 0.726 ± 0.014; relative viability ([6]; 0.00017 µM): 0.936 ± 0.033; relative viability ([6]; 0.00051 µM): 0.968 ± 0.033; relative viability ([6]; 0.00152 µM): 0.979 ± 0.034; relative viability ([6]; 0.00457 µM): 0.946 ± 0.029; relative viability ([6]; 0.01372 µM): 0.942 ± 0.023; relative viability ([6]; 0.04115 µM): 0.961 ± 0.057; relative viability ([6]; 0.1235 µM): 0.955 ± 0.022; relative viability ([6]; 0.3704 µM): 0.902 ± 0.032; relative viability ([6]; 1.111 µM): 0.91 ± 0.066; relative viability ([6]; 3.333 µM): 0.892 ± 0.058; relative viability ([6]; 10 µM): 0.798 ± 0.01; relative viability ([7]; 0.00017 µM): 0.968 ± 0.017; relative viability ([7]; 0.00051 µM): 0.986 ± 0.047; relative viability ([7]; 0.00152 µM): 0.95 ± 0.029; relative viability ([7]; 0.00457 µM): 0.964 ± 0.04; relative viability ([7]; 0.01372 µM): 1 ± 0.038; relative viability ([7]; 0.04115 µM): 0.991 ± 0.031; relative viability ([7]; 0.1235 µM): 0.999 ± 0.014; relative viability ([7]; 0.3704 µM): 1.01 ± 0.019; relative viability ([7]; 1.111 µM): 0.978 ± 0.014; relative viability ([7]; 3.333 µM): 0.936 ± 0.05; relative viability ([7]; 10 µM): 0.845 ± 0.023; relative viability ([8]; 0.00017 µM): 1.06 ± 0.017; relative viability ([8]; 0.00051 µM): 1.06 ± 0.024; relative viability ([8]; 0.00152 µM): 1.07 ± 0.032; relative viability ([8]; 0.00457 µM): 1.05 ± 0.032; relative viability ([8]; 0.01372 µM): 1.07 ± 0.042; relative viability ([8]; 0.04115 µM): 1.08 ± 0.044; relative viability ([8]; 0.1235 µM): 1.01 ± 0.027; relative viability ([8]; 0.3704 µM): 1.05 ± 0.014; relative viability ([8]; 1.111 µM): 1.02 ± 0.022; relative viability ([8]; 3.333 µM): 1 ± 0.041; relative viability ([8]; 10 µM): 0.833 ± 0.043; relative viability ([9]; 0.00017 µM): 1.04 ± 0.074; relative viability ([9]; 0.00051 µM): 1.1 ± 0.075; relative viability ([9]; 0.00152 µM): 1.06 ± 0.022; relative viability ([9]; 0.00457 µM): 1.08 ± 0.038; relative viability ([9]; 0.01372 µM): 1.09 ± 0.013; relative viability ([9]; 0.04115 µM): 1.09 ± 0.049; relative viability ([9]; 0.1235 µM): 1.1 ± 0.028; relative viability ([9]; 0.3704 µM): 1.05 ± 0.049; relative viability ([9]; 1.111 µM): 1.07 ± 0.027; relative viability ([9]; 3.333 µM): 1.05 ± 0.074; relative viability ([9]; 10 µM): 1.02 ± 0.062; relative viability ([10]; 0.00017 µM): 1.06 ± 0.047; relative viability ([10]; 0.00051 µM): 1.07 ± 0.032; relative viability ([10]; 0.00152 µM): 1.05 ± 0.015; relative viability ([10]; 0.00457 µM): 1.05 ± 0.028; relative viability ([10]; 0.01372 µM): 1.08 ± 0.061; relative viability ([10]; 0.04115 µM): 1.08 ± 0.011; relative viability ([10]; 0.1235 µM): 1.05 ± 0.052; relative viability ([10]; 0.3704 µM): 1.02 ± 0.042; relative viability ([10]; 1.111 µM): 1.02 ± 0.048; relative viability ([10]; 3.333 µM): 1.03 ± 0.08; relative viability ([10]; 10 µM): 0.972 ± 0.015; relative viability ([11]; 0.00017 µM): 0.96 ± 0.027; relative viability ([11]; 0.00051 µM): 0.978 ± 0.017; relative viability ([11]; 0.00152 µM): 0.994 ± 0.011; relative viability ([11]; 0.00457 µM): 0.9695 ± 0.0056; relative viability ([11]; 0.01372 µM): 0.99 ± 0.026; relative viability ([11]; 0.04115 µM): 1.009 ± 0.0093; relative viability ([11]; 0.1235 µM): 1 ± 0.022; relative viability ([11]; 0.3704 µM): 0.958 ± 0.061; relative viability ([11]; 1.111 µM): 0.979 ± 0.013; relative viability ([11]; 3.333 µM): 0.975 ± 0.012; relative viability ([11]; 10 µM): 0.999 ± 0.05; relative viability ([12]; 0.00017 µM): 1.04 ± 0.022; relative viability ([12]; 0.00051 µM): 1.08 ± 0.053; relative viability ([12]; 0.00152 µM): 1.05 ± 0.022; relative viability ([12]; 0.00457 µM): 1.08 ± 0.02; relative viability ([12]; 0.01372 µM): 1.06 ± 0.037; relative viability ([12]; 0.04115 µM): 1.07 ± 0.041; relative viability ([12]; 0.1235 µM): 1.067 ± 0.0077; relative viability ([12]; 0.3704 µM): 1.07 ± 0.03; relative viability ([12]; 1.111 µM): 1.11 ± 0.053; relative viability ([12]; 3.333 µM): 1.14 ± 0.06; relative viability ([12]; 10 µM): 1.17 ± 0.064
